Reference: ChEMBL document CHEMBL5113491, “Discovery of N-benzylarylamide derivatives as novel tubulin polymerization inhibitors capable of activating the Hippo pathway” (Eur J Med Chem, 2022)
Calls of active or inactive are those of the source. The calls are words filed in the database; no cut-off is given here.

Legend:
[1] = system: MGC-803; assay: Downregulation of Axl protein expression in human MGC-803 cells at 15 to 45 nmol/L measured after 48 hrs by Western blot analysis; type: functional, cell-based; details: dose 15-45 nmol/L
[2] = system: MGC-803; assay: Activation of MST in human MGC-803 cells assessed as increase in MST phosphorylation measured after 48 hrs by Western blot analysis; type: cell-based; details: filed as activator, dose 15-45 nmol/L, DDE = dose-dependent effect
[3] = system: HCT-116; assay: Antiproliferative activity against human HCT-116 cells assessed as inhibition of cell growth measured after 48 hrs by MTT assay; type: functional, cell-based; details: HCT-116, 48 h
[4] = system: MGC-803; assay: Induction of G2/M phase cell cycle arrest in human MGC-803 cells assessed as decrease in cyclin A2 expression at 15 to 45 nmol/L measured after 48 hrs by Western blot analysis; type: functional, cell-based; details: dose 15-45 nmol/L
[5] = system: MGC-803; assay: Induction of G2/M phase cell cycle arrest in human MGC-803 cells assessed as decrease in cyclin A1 expression at 15 to 45 nmol/L measured after 48 hrs by Western blot analysis; type: functional, cell-based; details: dose 15-45 nmol/L
[6] = system: MGC-803; assay: Induction of morphological changes in human MGC-803 cells assessed as increase in proportion of dead cells at 15 to 45 nmol/L measured after 48 hrs by calcein-AM/PI staining based microscopic analysis; type: functional, cell-based; details: dose 15-45 nmol/L
[7] = system: SGC-7901; assay: Downregulation of TAZ protein expression in human SGC-7901 cells measured after 48 hrs by Western blot analysis; type: functional, cell-based; details: dose 15-45 nmol/L, DDE = dose-dependent effect
[8] = system: HUVEC; assay: Cytotoxicity against human HUVEC cells assessed as reduction in cell viability at 5 to 40 nM measured after 48 hrs by MTT assay; type: toxicity, cell-based; details: 0.04 µM, dose 5-40 nM

C/C=C/C(=O)N(Cc1ccc(OC)c(O)c1)c1cc(OC)c(OC)c(OC)c1 was tested, and the Activity [1] was “Active”, the Activity [2] was “Dde” and the IC50 [3] was 55 nM. The Activity [4] was “Active”, the Activity [5] was “Active” and the Activity [6] was “Active”. For the same compound, the Activity [7] was “Dde” and the Activity [8] was “Non-Toxic”.
